The values that follow come from paper PMC11073913 (Archiv der Pharmazie, 2024).

In one test the target is T1, ovine COX-1 (Ovis aries, UniProt P05979).
T1 sequence (P05979 25-600): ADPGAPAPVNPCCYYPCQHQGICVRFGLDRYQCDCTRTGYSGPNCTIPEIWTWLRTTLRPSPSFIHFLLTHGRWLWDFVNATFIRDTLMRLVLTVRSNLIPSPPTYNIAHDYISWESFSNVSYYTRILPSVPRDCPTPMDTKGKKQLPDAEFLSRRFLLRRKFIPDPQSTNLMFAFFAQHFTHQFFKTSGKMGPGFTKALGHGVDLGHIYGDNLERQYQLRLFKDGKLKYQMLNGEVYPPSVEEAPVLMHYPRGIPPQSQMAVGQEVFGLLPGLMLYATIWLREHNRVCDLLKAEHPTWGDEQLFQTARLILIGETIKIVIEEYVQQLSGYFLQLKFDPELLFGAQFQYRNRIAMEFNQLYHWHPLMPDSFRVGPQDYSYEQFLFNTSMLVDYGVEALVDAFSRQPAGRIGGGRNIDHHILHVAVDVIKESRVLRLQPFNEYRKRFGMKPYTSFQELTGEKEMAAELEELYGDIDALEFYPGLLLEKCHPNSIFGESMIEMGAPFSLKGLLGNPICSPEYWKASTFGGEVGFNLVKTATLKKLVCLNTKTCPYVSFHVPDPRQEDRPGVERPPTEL
Nature of the test: In vitro COX-1 inhibitory assay. The class given is biochemical.

The target in a further test is T2, human recombinant COX-2 (Homo sapiens, UniProt P35354).
T2 sequence (P35354 18-604): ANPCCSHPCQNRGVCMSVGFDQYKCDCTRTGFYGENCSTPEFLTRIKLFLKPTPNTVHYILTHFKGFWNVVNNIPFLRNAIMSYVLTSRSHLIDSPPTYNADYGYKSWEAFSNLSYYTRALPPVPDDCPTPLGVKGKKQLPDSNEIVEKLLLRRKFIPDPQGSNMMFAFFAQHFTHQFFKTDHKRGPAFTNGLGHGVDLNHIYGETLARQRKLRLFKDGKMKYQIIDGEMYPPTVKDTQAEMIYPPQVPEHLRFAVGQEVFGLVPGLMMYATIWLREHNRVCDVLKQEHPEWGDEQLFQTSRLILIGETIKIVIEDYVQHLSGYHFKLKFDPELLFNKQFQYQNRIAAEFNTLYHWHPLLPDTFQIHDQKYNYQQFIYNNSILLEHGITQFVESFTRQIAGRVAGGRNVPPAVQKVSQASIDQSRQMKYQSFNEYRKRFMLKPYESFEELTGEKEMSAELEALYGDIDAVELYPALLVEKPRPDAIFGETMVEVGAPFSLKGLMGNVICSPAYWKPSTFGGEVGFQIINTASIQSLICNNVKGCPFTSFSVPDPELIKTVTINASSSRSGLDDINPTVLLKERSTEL
Put plainly: In vitro COX-2 inhibitory assay. The class given is biochemical. The settings on record: for Enhancement of anti-COX-2 activity by p-Cl on benzylidine: compared with unsubstituted compounds 4b, 4c, 4g, 4h respectively.

For another test, the target named is T3, soybean 15-LOX (Glycine max, UniProt P08170).
T3 sequence (P08170 1-839): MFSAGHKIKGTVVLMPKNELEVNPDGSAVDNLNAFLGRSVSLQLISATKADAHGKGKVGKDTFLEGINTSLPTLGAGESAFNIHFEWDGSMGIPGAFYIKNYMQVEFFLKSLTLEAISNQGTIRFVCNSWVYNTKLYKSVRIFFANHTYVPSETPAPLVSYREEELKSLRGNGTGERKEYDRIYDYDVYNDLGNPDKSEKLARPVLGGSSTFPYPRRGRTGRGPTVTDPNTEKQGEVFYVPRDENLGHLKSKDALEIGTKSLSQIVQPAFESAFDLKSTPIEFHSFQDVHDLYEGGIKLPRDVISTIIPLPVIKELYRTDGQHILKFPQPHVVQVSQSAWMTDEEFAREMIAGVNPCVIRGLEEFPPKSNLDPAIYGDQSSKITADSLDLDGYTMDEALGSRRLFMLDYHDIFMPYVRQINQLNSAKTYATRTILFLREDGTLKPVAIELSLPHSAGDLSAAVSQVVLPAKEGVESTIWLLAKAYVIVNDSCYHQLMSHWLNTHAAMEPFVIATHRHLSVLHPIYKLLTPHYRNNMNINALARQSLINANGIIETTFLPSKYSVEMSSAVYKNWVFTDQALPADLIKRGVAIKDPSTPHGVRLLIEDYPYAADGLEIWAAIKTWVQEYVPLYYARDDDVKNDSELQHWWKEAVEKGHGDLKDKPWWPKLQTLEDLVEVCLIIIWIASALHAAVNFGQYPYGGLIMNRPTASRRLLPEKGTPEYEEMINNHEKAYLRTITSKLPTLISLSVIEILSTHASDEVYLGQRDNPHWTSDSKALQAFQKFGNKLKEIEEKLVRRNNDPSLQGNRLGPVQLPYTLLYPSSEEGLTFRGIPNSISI
Put plainly: In vitro 15-LOX inhibitory assay. Type of test: biochemical.

Test [1] has as its system LPS-induced TNF-α production in RAW 264.7 cells. Particulars: for TNF-α level: cells treated with 25 μM compound, LPS-activated RAW 264.7.
Test [2] deals with LPS-induced IL-6 production in RAW 264.7 cells. Particulars: for IL-6 level: cells treated with 25 μM compound, LPS-activated RAW 264.7.
The subject of test [3] is LPS-induced ROS production in RAW 264.7 cells. Nature of the test: cells. The settings on record: Mus musculus, RAW264.7, 18 h, read-out: ROS (IC50).

Molecules are shown by their SMILES. Several values for one entry are separate records, joined by “and”; a condition that tells them apart may be missing. Equal values may be shown once. Read-outs that look alike come from different tables or passages of the source.

The IC50 is the point on the concentration scale where inhibition reaches its midpoint. On to `O=C(CSC1=N/C(=C\c2ccc(Cl)cc2)C(=O)N1c1ccccc1)NCc1ccccc1` [Compound 4r, (Z)-N-Benzyl-2-[(4-(4-chlorobenzylidene)-5-oxo-1-phenyl-4,5-dihydro-1H-imidazol-2-yl)thio]acetamide], for which the IC50 on ovine COX-1 was 10.1 ± 1.6 µM; at human recombinant COX-2, 0.13 ± 0.057 µM; on soybean 15-LOX it was 2.47 ± 1.14 µM; in test [3], 72.4 ± 1.85 µM. Further, the “SI (Selectivity index = COX-1 IC50/COX-2 IC50)” value at human recombinant COX-2 worked out at 78.00. In test [1], this compound had a TNF-α level of 21.02 ± 5.03 pg/mL. In test [2], this compound yielded an IL-6 level of 20.29 ± 5.03 pg/mL.

As to `O=C(CSC1=N/C(=C\c2ccccc2)C(=O)N1c1ccccc1)NCc1ccccc1` [Compound 4i, (Z)-N-Benzyl-2-[(4-benzylidene-5-oxo-1-phenyl-4,5-dihydro-1H-imidazol-2-yl)thio]acetamide], the 50% inhibitory concentration (IC50) on ovine COX-1 is 10.6 ± 1.62 µM; at human recombinant COX-2, 0.09 ± 0.041 µM; on soybean 15-LOX it was 2.82 ± 1.27 µM; in test [3] it was 21.8 ± 1.26 µM. Also, the “SI (Selectivity index = COX-1 IC50/COX-2 IC50)” value on human recombinant COX-2 worked out at 121.60. In test [1], this compound had a TNF-α level of 46.98 ± 25.83 pg/mL. The IL-6 level in test [2] is 21.00 pg/mL and 21.00 ± 9.39 pg/mL.

Regarding `O=C(CSC1=N/C(=C\c2ccc(Cl)cc2)C(=O)N1c1ccccc1)Nc1cccc(C(F)(F)F)c1` [Compound 4q, (Z)-2-{[4-(4-Chlorobenzylidene)-5-oxo-1-phenyl-4,5-dihydro-1H-imidazol-2-yl]thio}-N-[3-(trifluoromethyl)phenyl]acetamide], the IC50 was 10.1 ± 1.61 µM against ovine COX-1, 0.09 ± 0.04 µM on human recombinant COX-2, 3.99 ± 1.9 µM against soybean 15-LOX and 56.2 ± 1.26 µM in test [3]. For the same compound, the “SI (Selectivity index = COX-1 IC50/COX-2 IC50)” value on human recombinant COX-2 is 111.90. In addition, the “Enhancement of anti-COX-2 activity by p-Cl on benzylidine” value at human recombinant COX-2 stood at 3.1 folds. Further, the TNF-α level in test [1] was 5.26 pg/mL and 5.26 ± 0.61 pg/mL. Moreover, the “TNF-α inhibitory activity, fold more than unsubstituted benzylidine 4h” value in test [1] (vs 4h) turned out to be 4.6 fold. Also, the “TNF-α inhibition, fold more potent than celecoxib” value in test [1] (vs celecoxib) is listed as ~ 5 fold. For the same compound, the IL-6 level in test [2] amounted to 4.54 ± 0.61 pg/mL. Besides, in test [2] (vs 4h), the “IL-6 inhibitory activity, folds more than unsubstituted benzylidine 4h” value was ~ 5 folds.

On to `COc1ccc2c(c1)c(CC(=O)O)c(C)n2C(=O)c1ccc(Cl)cc1` [Indomethacin, indomethacin, reference compound], for which, in test [3], the IC50 was found to be 55 ± 1.26 µM.

Consider `O=C(CSC1=N/C(=C\c2ccc(Cl)cc2)C(=O)N1c1ccccc1)Nc1ccc(Br)cc1` [Compound 4m, (Z)-N-(4-Bromophenyl)-2-[(4-(4-chlorobenzylidene)-5-oxo-1-phenyl-4,5-dihydro-1H-imidazol-2-yl)thio]acetamide], for which the IC50 was determined as 8 ± 1.31 µM at ovine COX-1, 0.18 ± 0.082 µM at human recombinant COX-2, 4.21 ± 1.53 µM on soybean 15-LOX and 38.4 ± 1.37 µM in test [3]. The “SI (Selectivity index = COX-1 IC50/COX-2 IC50)” value at human recombinant COX-2 stood at 44.12. The TNF-α level in test [1] is 27.89 pg/mL and 27.89 ± 0.90 pg/mL. The compound further registered an IL-6 level in test [2] of 27.16 ± 0.9 pg/mL.

`COc1ccc(NC(=O)CSC2=N/C(=C\c3ccc(Cl)cc3)C(=O)N2c2ccccc2)cc1` [Compound 4o, (Z)-2-{[4-(4-Chlorobenzylidene)-5-oxo-1-phenyl-4,5-dihydro-1H-imidazol-2-yl]thio}-N-(4-methoxyphenyl)acetamide]: the IC50 at ovine COX-1 was 11 ± 1.53 µM; on human recombinant COX-2, 0.1 ± 0.044 µM; against soybean 15-LOX, 3.24 ± 1.46 µM; in test [3], 24.2 ± 1.26 µM. For the same compound, the “SI (Selectivity index = COX-1 IC50/COX-2 IC50)” value at human recombinant COX-2 was 111.27. In test [1], this compound gave a TNF-α level of 29.10 ± 4.54 pg/mL. Also, the IL-6 level in test [2] was 28.37 pg/mL and 28.37 ± 4.54 pg/mL.

As for `Cc1ccc(-c2cc(C(F)(F)F)nn2-c2ccc(S(N)(=O)=O)cc2)cc1` [Celecoxib, celecoxib, reference compound], the TNF-α level in test [1] is given as 25.36 ± 6.364 pg/mL; in test [1] (listed as celecoxib), 25.36 pg/mL. Also, the IL-6 level in test [2] amounted to 24.64 ± 6.36 pg/mL; in test [2] (listed as celecoxib), 24.64 pg/mL. The IC50 in test [3] was determined as 44.6 ± 1.18 µM.

Consider `O=C(CSC1=N/C(=C\c2ccccc2)C(=O)N1c1ccccc1)Nc1cccc(C(F)(F)F)c1` [Compound 4h, (Z)-2-[(4-Benzylidene-5-oxo-1-phenyl-4,5-dihydro-1H-imidazol-2-yl)thio]-N-[3-(trifluoromethyl)phenyl]acetamide], for which the IC50 at ovine COX-1 was 11.1 ± 1.63 µM; at human recombinant COX-2 it was 0.28 ± 0.155 µM; at soybean 15-LOX it was 5.71 ± 2.56 µM; in test [3], 45.4 ± 1.23 µM. The “SI (Selectivity index = COX-1 IC50/COX-2 IC50)” value on human recombinant COX-2 turned out to be 39.99. This compound also came in with a TNF-α level in test [1] of 24.15 ± 1.05 pg/mL. Moreover, the IL-6 level in test [2] is 23.42 pg/mL and 23.42 ± 1.05 pg/mL.

Turning to `COc1cc(NC(=O)CSC2=N/C(=C\c3ccc(Cl)cc3)C(=O)N2c2ccccc2)cc(OC)c1OC` [Compound 4p, (Z)-2-{[4-(4-Chlorobenzylidene)-5-oxo-1-phenyl-4,5-dihydro-1H-imidazol-2-yl]thio}-N-(3,4,5-trimethoxyphenyl)acetamide], the IC50 on ovine COX-1 is 12.8 ± 1.83 µM; on human recombinant COX-2 it was 0.08 ± 0.037 µM; against soybean 15-LOX, 2.69 ± 1.29 µM; in test [3], 25.4 ± 1.26 µM. Further, the “SI (Selectivity index = COX-1 IC50/COX-2 IC50)” value at human recombinant COX-2 is 152.23 and 152.33. The “Enhancement of anti-COX-2 activity by p-Cl on benzylidine” value on human recombinant COX-2 turned out to be 1.75 folds. In test [1], this compound had a TNF-α level of 31.42 ± 3.70 pg/mL. Further, the IL-6 level in test [2] is 30.70 pg/mL and 30.70 ± 3.70 pg/mL.

`O=C(CSC1=N/C(=C\c2ccc(Cl)cc2)C(=O)N1c1ccccc1)Nc1ccccc1` [Compound 4j, (Z)-2-{[4-(4-Chlorobenzylidene)-5-oxo-1-phenyl-4,5-dihydro-1H-imidazol-2-yl]thio}-N-phenylacetamide]: the IC50 came to 12 ± 1.67 µM against ovine COX-1, 0.13 ± 0.064 µM on human recombinant COX-2, 4.75 ± 2.31 µM against soybean 15-LOX and 33.4 ± 1.27 µM in test [3]. The “SI (Selectivity index = COX-1 IC50/COX-2 IC50)” value at human recombinant COX-2 amounted to 94.97. For the same compound, the TNF-α level in test [1] is 50.31 ± 10.22 pg/mL. For the same compound, in test [2], the IL-6 level was 49.59 pg/mL and 49.59 ± 10.22 pg/mL.

As to `O=C(CSC1=N/C(=C\c2ccccc2)C(=O)N1c1ccccc1)Nc1ccccc1` [Compound 4a, (Z)-2-[(4-Benzylidene-5-oxo-1-phenyl-4,5-dihydro-1H-imidazol-2-yl)thio]-N-phenylacetamide], the IC50 against ovine COX-1 came out at 7.83 ± 1.19 µM; at human recombinant COX-2, 0.12 ± 0.06 µM; on soybean 15-LOX, 5.71 ± 2.56 µM; in test [3] it was 44.6 ± 1.43 µM. At human recombinant COX-2, the “SI (Selectivity index = COX-1 IC50/COX-2 IC50)” value amounted to 62.97. Also, the TNF-α level in test [1] turned out to be 57.28 ± 18.75 pg/mL. In test [2], this compound gave an IL-6 level of 37.82 ± 1.06 pg/mL.
